The results in this text go back to patent publication US6620810B2, “4-thioxo-4,7-dihydro-thieno[2,3-b]pyridine-5-carboxamides as antiviral agents” (Pharmacia & Upjohn Company, priority 2001, dated 2003).

What all share (type): biochemical
The target of assay [1] is VZV polymerase (Varicella-zoster virus, UniProt P09252). In words: VZV polymerase assay (Table 1).
The target in assay [2] is HSV polymerase (Human herpesvirus 1, UniProt P04293). Put plainly: HSV polymerase assay (Table 1).
Assay [3] deals with T1, HCMV polymerase (Human cytomegalovirus, UniProt P08546).
T1 construct: made in house; host or cells: recombinant baculovirus-infected SF-9 cells
T1 sequence (P08546 whole entry): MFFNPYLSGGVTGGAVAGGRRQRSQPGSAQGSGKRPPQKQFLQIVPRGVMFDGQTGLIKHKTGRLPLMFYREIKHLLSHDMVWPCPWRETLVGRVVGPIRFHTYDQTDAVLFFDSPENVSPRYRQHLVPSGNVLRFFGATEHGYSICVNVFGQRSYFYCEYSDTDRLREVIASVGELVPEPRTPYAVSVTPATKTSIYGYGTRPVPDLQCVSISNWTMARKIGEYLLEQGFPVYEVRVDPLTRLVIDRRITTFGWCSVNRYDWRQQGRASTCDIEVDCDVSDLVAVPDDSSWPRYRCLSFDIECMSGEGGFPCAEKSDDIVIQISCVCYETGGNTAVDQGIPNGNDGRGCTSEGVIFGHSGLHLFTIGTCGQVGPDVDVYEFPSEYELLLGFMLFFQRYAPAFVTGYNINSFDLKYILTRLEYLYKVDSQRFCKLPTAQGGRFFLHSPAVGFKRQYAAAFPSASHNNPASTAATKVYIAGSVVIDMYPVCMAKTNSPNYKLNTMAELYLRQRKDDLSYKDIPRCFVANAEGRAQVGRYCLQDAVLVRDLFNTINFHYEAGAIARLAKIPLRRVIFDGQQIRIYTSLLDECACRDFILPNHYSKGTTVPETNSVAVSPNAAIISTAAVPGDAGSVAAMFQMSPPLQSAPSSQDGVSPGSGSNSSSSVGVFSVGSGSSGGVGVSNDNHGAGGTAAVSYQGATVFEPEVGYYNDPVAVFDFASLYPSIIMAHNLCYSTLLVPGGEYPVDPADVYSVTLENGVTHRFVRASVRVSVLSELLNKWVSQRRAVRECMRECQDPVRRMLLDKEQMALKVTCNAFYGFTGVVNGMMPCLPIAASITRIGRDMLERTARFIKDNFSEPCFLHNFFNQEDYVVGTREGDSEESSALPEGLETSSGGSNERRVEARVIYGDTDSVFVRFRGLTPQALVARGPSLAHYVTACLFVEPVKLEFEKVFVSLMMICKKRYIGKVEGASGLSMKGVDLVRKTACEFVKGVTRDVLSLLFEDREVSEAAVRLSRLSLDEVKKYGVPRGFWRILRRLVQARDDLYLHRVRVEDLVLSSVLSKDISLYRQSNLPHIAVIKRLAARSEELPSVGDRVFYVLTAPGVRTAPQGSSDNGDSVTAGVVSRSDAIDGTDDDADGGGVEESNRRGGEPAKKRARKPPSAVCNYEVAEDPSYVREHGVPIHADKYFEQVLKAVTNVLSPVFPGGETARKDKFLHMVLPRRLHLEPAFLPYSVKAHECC
Put plainly: HCMV polymerase scintillation proximity assay (Test A, modified version). To be noted: modified SPA assay: compounds diluted in 100% DMSO, 4.5 mM DTT in polymerase buffer. How it is done:
The HCMV polymerase assay is performed using a scintillation proximity assay (SPA) as described in several references, such as N. D. Cook, et al., Pharmaceutical Manufacturing International, pages 49-53 (1992); K. Takeuchi, Laboratory Practice, September issue (1992); U.S. Pat. No. 4,568,649 (1986); which are incorporated by reference herein. Reactions are performed in 96-well plates. The assay is conducted in 100 μl volume with 5.4 mM HEPES (pH 7.5), 11.7 mM KCl, 4.5 mM MgCl2, 0.36 mg/ml BSA, and 90 nM ^3H-dTTP. Assays are run with and without CHAPS, (3-[(3-cholamidopropyl)-dimethylammonio]-1-propane-sulfonate) at a final concentration of 2 mM. HCMV polymerase is diluted in enzyme dilution buffer containing 50% glycerol, 250 mM NaCl, 10 mM HEPES (pH 7.5), 100 μg/ml BSA, and 0.01% sodium azide. […] Plates are incubated 10 min. at 37° C., then equilibrated to room temperature, and counted on a Packard Topcount. Linear regressions are performed and IC50's are calculated using computer software.
A modified version of the above HCMV polymerase assay is performed as described above, but with the following changes: Compounds are diluted in 100% DMSO until final dilution into assay buffer. […] In Table 1, the term “nd” refers to activity data not determined.
A general note: In a scintillation proximity assay essentially only radioactivity close to the scintillant gives light.

Chain of VZV polymerase (P09252 whole entry): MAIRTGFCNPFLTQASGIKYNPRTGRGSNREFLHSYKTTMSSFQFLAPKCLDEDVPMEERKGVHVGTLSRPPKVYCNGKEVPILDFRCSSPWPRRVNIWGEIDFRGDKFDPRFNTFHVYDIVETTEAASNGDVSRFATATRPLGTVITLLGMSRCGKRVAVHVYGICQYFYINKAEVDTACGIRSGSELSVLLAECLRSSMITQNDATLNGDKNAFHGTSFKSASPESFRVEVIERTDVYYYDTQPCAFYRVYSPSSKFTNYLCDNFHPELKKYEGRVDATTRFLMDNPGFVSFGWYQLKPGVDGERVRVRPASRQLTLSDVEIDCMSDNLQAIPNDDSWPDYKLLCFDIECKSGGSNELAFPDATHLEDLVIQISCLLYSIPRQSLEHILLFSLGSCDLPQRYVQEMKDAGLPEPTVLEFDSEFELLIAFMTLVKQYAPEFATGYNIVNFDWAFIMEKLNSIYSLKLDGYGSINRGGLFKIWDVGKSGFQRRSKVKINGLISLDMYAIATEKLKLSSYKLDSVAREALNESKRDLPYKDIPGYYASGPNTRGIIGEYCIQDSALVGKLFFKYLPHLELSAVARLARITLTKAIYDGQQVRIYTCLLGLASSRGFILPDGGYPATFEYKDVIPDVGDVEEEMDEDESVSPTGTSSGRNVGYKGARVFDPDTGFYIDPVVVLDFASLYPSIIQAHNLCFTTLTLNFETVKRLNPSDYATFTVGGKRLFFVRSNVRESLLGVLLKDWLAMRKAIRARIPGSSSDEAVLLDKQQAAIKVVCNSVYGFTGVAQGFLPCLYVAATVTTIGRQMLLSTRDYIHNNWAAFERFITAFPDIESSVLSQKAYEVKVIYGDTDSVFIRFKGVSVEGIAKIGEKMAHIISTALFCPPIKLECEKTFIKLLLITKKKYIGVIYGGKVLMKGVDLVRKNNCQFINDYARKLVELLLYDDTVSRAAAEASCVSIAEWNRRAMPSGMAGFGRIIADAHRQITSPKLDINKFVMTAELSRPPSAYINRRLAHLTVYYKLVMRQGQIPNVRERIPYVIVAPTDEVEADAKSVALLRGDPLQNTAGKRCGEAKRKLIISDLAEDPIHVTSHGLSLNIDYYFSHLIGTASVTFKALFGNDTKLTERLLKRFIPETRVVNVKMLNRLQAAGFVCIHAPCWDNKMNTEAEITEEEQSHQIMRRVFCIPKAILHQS
Chain of HSV polymerase (P04293 whole entry): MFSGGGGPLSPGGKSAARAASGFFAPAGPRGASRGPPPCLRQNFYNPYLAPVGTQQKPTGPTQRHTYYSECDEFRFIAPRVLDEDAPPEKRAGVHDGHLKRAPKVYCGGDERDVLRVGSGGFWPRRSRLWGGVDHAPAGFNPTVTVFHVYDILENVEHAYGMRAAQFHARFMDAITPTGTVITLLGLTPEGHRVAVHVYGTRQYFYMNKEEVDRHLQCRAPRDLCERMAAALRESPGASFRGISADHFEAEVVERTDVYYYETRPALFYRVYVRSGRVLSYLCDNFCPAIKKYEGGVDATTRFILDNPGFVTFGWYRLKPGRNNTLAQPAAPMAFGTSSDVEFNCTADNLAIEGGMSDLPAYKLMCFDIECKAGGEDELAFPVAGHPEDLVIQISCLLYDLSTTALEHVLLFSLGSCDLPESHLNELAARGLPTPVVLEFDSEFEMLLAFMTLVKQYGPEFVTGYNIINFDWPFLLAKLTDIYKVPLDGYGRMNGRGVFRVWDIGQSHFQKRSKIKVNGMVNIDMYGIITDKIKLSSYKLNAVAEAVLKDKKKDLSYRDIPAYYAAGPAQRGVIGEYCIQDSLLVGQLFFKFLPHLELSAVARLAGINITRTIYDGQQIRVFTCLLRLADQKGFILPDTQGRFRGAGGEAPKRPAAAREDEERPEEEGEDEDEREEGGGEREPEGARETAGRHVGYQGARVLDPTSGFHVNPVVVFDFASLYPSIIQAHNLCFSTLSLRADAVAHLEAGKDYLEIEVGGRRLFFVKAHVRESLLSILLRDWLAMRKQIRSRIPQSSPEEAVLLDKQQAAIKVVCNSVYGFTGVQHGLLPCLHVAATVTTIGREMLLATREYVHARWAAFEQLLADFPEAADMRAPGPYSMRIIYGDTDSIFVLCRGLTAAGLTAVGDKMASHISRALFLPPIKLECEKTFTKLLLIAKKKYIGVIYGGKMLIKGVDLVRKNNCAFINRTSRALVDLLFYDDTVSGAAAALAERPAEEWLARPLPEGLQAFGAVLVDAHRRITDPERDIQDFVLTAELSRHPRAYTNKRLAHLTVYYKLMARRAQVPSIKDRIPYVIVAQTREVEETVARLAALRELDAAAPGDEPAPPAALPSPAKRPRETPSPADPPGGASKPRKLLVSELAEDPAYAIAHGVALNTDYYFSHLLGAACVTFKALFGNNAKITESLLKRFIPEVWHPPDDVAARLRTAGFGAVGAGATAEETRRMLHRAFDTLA

`Cn1cc(C(=O)NCc2ccc(Cl)cc2)c(=S)c2cc(CN3CCOCC3)sc21` [Example 1, N-(4-chlorobenzyl)-7-methyl-2-(4-morpholinylmethyl)-4-thioxo-4,7-dihydrothieno[2,3-b]pyridine-5-carboxamide]: the results for the IC50 in assay [1], in assay [2] and in assay [3] were 80 nM, 160 nM and 630 nM, respectively.

For orientation: IC50 means the concentration that gives 50% inhibition.
